Measurements taken from PMC10780244, “Antileishmanial Effect of 1,5- and 1,8-Substituted Fused Naphthyridines” (Molecules, 2023).

How the values were obtained:
[1] = Drug tolerance in murine intestinal organoids (alamarBlue); assay type: cell-based, mouse; settings: Balb/c, mouse, murine intestinal organoids, 72 h exposure
Description: (§1) Amastigotes obtained from mouse bone marrow cells were used to perform a first screening with the complete series of fused 1,5- and 1,8-naphthyridines. […] The toxicity of these selected compounds was assessed in non-infected splenic cells and the cytotoxic concentration (CC50) value obtained was used to calculate the selective index (SI). The oral tolerability of these same compounds was tested by calculating the viability of murine intestinal organoids exposed to two concentrations (50 and 25 µM).
(§2) Preparation and maintenance of murine intestinal organoids cultures were performed following the protocols published by Stemcell Technologies™ (https://www.stemcell.com/intestinal-epithelial-organoid-culture-with-intesticult-organoid-growth-medium-mouse-lp.html#protocols, accessed on 14 December 2023) with some modifications. Briefly, a section of small intestine from a Balb/c mouse was extracted and washed with ice-cold PBS. This section was cut into pieces around 2 mm each, washed 15–20 times with ice-cold PBS and incubated with Gentle Cell Dissociation Reagent (Stemcell Technologies™, Vancouver, BC, Canada) for 20 min. Then, the pieces were resuspended in ice-cold PBS with 0.1% BSA and left to settle at the bottom of the tube. The supernatant was collected and filtered through a 70 µm strainer. This process was repeated a total of four times obtaining different fractions. Cells from these fractions were centrifugated at 300× g for 5 min at 4 °C, washed with ice-cold PBS + 0.1% BSA and resuspended on 10 mL of ice-cold DMEM/F12 supplemented with glutamine and HEPES 15 mM (Gibco, Thermo Fisher Scientific, Waltham, MA, USA). After the evaluation under a microscope, the fraction with the highest crypt number but the lowest detritus presence was chosen. This fraction was centrifugated at 200× g for 5 min at 4 °C and the pellet was resuspended in a 1:1 mix of Geltrex GFR LDEV-free (Gibco, Fisher Scientific, Waltham, MA, USA) and IntestiCult™ Organoid Grow Medium Mouse (Stemcell Technologies™, Vancouver, BC, Canada). Fifty microliters of the suspension were pipetted into the middle of each well of a pre-heated 24-well plate and incubated at 37 °C for 10 min to allow polymerization of the matrix. In the end, 500 µL of IntestiCult™ Organoid Grow Medium was added to each well. The plates were incubated at 37 °C and 5% CO2, changing the culture medium every 48 h. Organoids were split 1 into 4 plates after 7 days.
(§3) Drug tolerance assays using murine intestinal organoids were performed in 384-well plates, following a protocol based on previous works and introducing several modifications. Briefly, organoids were prepared discarding the culture medium and adding 800 µL of Gentle Cell Dissociation Reagent (Stemcell Technologies™, Vancouver, BC, Canada) directly on top of matrix domes. After 1 min incubation at room temperature, the matrix was broken by pipetting, and the content of the wells was retrieved. The suspension was incubated at room temperature for 10 min on a rocking platform at 20 rpm, and centrifugated at 300× g for 5 min at 4 °C. The pellet was resuspended in 10 mL of ice-cold DMEM/F12 (Gibco, Fisher Scientific, Waltham, MA, USA) supplemented with glutamine and HEPES 15 mM and centrifugated again at 200× g for 5 min at 4 °C. Cells were resuspended in a 1:1 mix of Geltrex GFR LDEV-free and IntestiCult™ Organoid Grow Medium Mouse (Stemcell Technologies™, Vancouver, Canada). The final volume of the mix was calculated to achieve a 4-fold dilution in the final plate compared to the original plate. The mix was distributed in a 384-well plate (8 µL/well) which was incubated at 37 °C for 10 min. After that, 32 µL of IntestiCult™ Organoid Grow Medium Mouse (Stemcell Technologies™, Vancouver, Canada) were added to each well. The plate was incubated at 37 °C and 5% CO2 and after 4 days, mature organoids were exposed to drugs, alone or combined. For positive control, hydrogen peroxide at the final concentration of 0.15 % v/v was used. […]

[2] = system: murine intestinal organoids; assay: as above; assay type: cell-based, mouse; settings: 50 µM, 72 h exposure
Description: as §1, §2, §3

[3] = system: mouse splenic macrophages; assay: Cytotoxicity in uninfected murine splenic cells (alamarBlue); assay type: cell-based; settings: summary in discussion
Description: Amastigotes obtained from mouse bone marrow cells were used to perform a first screening with the complete series of fused 1,5- and 1,8-naphthyridines. […] The toxicity of these selected compounds was assessed in non-infected splenic cells and the cytotoxic concentration (CC50) value obtained was used to calculate the selective index (SI). The oral tolerability of these same compounds was tested by calculating the viability of murine intestinal organoids exposed to two concentrations (50 and 25 µM). In order to assess the in vitro safety of the naphthyridines, cytotoxicity assays were carried out in ex vivo splenic explants from uninfected mice, which were prepared as previously described to obtain intramacrophagic amastigotes. Cells were seeded at a density of 1 × 10^6 cells per well in 96-well plates containing the prediluted compounds and incubated at 37 °C and 5% CO2 during 72 h. AlamarBlue assay (Invitrogen, Fisher Scientific, Waltham, MA, USA) was used to estimate cell viability following manufacturer’s recommendations. The assays were performed by triplicate. Absorbance of viable cells vs. compound concentrations were fitted by nonlinear analysis using the Sigma Plot 10.1 statistical package to calculate the cytotoxic concentration 50 (CC50) values. Selectivity index (SI) was calculated as the ratio between CC50 and the EC50 values of intramacrophagic amastigotes.

[4] = system: leishmanial DNA topoisomerase IB (LdTopIB); assay: Relaxation of supercoiled plasmid DNA assay; assay type: biochemical, Leishmania; settings: 100 μM of compounds, 1 min at 37 °C, in words
Description: page 2: DNA DMSO 6b8a8b8c9b10b11a13a13b14a7c8d15b Relaxationof supercoiled plasmid DNA assay. Each reaction contains one unit of purified leishmanial DNA topisomeraseIB enzyme (LdTopIB), 100 μM ofcompounds, 0.5μg of supercoiled […], 10 mM Tris-HCl buffer pH 7.5, 5 mM MgCl 2, 0.1 mM EDTA, 15 μg/mL bovine serum albumin, 150 mM KCl. Reaction mixtures were incubated 1 min at 37 °C and stopped by the addition of 4 μL loading buffer (5% sarkosyl, 0.12% bromophenol blue, 25% glycerol). The topoisomerswere resolved in 1% agarose gels by electrophoresis in 0.1 M Tris borate EDTA buffer (pH 8.0) at 2 V/cm for 16 h and visualized with UV illumination after ethidium bromide (0.5μg/mL) staining. […]

[5] = system: recombinant human DNA topoisomerase IB (hTopIB); design: method as in PMID 31229877, PMID 32279049, PMID 33962152; dose or concentration left out as unconfirmed; settings: cited from earlier work
two cancer cell lines = system: two cancer cell lines; design: method as in PMID 31229877, PMID 32279049, PMID 33962152; settings: cited from earlier work

Row | SMILES | viability at 72 h, 25 µM [1] [%] | viability at 72 h, 50 µM [1] [%] | Intestinal Organoids 50 µM (%Viability) [2] [%] | toxicity (in words) [3] | LdTopIB inhibitory activity [4] | inhibitory effect on DNA relaxation activity of hTopIB [5] | cytotoxic effects on two cancer cell lines (concentration range) (two cancer cell lines) [µM]
1 | O=C1Oc2ccccc2C2Nc3ccc(Br)nc3[C@@H](c3ccccc3)C12 (stereo partly drawn) [Compound 6b] | 72 ± 5 | 60 ± 7 | – | – | – | – | –
2 | COc1ccc2nc3c(c(-c4ccccc4)c2n1)c(=O)oc1ccccc13 [Compound 7c] | 99 ± 4 | 85 ± 13 | – | – | – | – | –
3 | Cc1ccc(S(=O)(=O)N2CC3C(Nc4cccnc4[C@H]3c3ccccc3)c3ccccc32)cc1 (stereo partly drawn) [Compound 8a] | 93 ± 7 | 89 ± 10 | – | – | – | – | –
4 | COc1ccc2c(n1)[C@@H](c1ccccc1)C1CN(S(=O)(=O)c3ccc(C)cc3)c3ccccc3C1N2 (stereo partly drawn) [Compound 8c] | > 100 | 100 | >100 | – | – | – | –
5 | Cc1ccc(S(=O)(=O)N2CC3C(Nc4ccc(Br)nc4[C@H]3c3ccccc3)c3ccccc32)cc1 (stereo partly drawn) [Compound 8d] | 4 ± 1 | 3 ± 1 | – | – | – | – | –
6 | Fc1ccc2c(c1)C1Nc3ncccc3[C@@H](c3ccccc3)C1CO2 (stereo partly drawn) [Compound 10b] | 99 ± 8 | 90 | 90 ± 22 | – | – | – | –
7 | c1ccc(-c2c3c(nc4ncccc24)-c2ccccc2OC3)cc1 [Compound 11a] | 92 ± 1 | 96 ± 1 | – | – | – | – | –
8 | O=c1oc2ccccc2c2nc3ncccc3c(-c3ccccc3)c12 [Compound 13a] | 87 ± 15 | 53 ± 5 | – | significant toxicity | did not show leishmanial DNA topoisomerase IB (LdTopIB) inhibitory activity | had an inhibitory effect on DNA relaxation activity | 1 to 15
9 | O=c1oc2ccccc2c2nc3ncc(Br)cc3c(-c3ccccc3)c12 [Compound 13b] | 90 ± 5 | 61 ± 19 | – | – | – | – | –
10 | Cc1ccc(S(=O)(=O)N2CC3C(Nc4ncccc4C3c3ccccc3)c3ccccc32)cc1 (stereo not drawn) [Compound 14a] | 90 ± 9 | 56 ± 14 | – | significant toxicity | did not show leishmanial DNA topoisomerase IB (LdTopIB) inhibitory activity | had an inhibitory effect on DNA relaxation activity | 1 to 15
11 | Cc1ccc(S(=O)(=O)N2Cc3c(nc4ncc(Br)cc4c3-c3ccccc3)-c3ccccc32)cc1 [Compound 15b] | 58 ± 16 | 13 ± 3 | – | significant toxicity | did not show leishmanial DNA topoisomerase IB (LdTopIB) inhibitory activity | had an inhibitory effect on DNA relaxation activity | 1 to 15
